Read-outs that look alike come from different tables or passages of the source.
Assays:
recombinant GSK3β kinase = recombinant GSK3β kinase (Homo sapiens (Human), UniProt P49841); test: GSK3β kinase assay (Ser/Thr 09 peptide Z-lyte FRET); type: biochemical; details: 46 μM ATP, 1 h room temperature;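 further: kinase activity read as coumarin to fluorescein emission ratio, 11-point threefold dilutions from 10 µM to 0.0003 µM in duplicate, unphosphorylated and phosphorylated peptide as 0% and 100% controls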
[1] = target: recombinant DYRK1A kinase (Homo sapiens (Human), UniProt Q13627); test: DYRK1A kinase assay (Ser/Thr 18 peptide Z-lyte FRET); type: biochemical; details: 30 μM ATP, 1 h room temperature;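 further: Read-out is the coumarin to fluorescein emission ratio, referenced to unphosphorylated (0%) and phosphorylated (100%) Ser/Thr 18 peptide controls, values from dose-response curves by non-linear regression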
[2] = system: Wnt pathway (Sp5-Luc reporter, TCF/LEF binding sites) in SW480 colon carcinoma cells; test: Screening assay for Wnt activity: Sp5-Luc reporter gene assay; type: cell-based, human; details: Homo sapiens; for EC50: Sp5-Luc reporter, SW480 cells, 36 to 48 hours; for inhibition at 10 µM: SW480, read-out: percent inhibition at 10 μM;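 on all read-outs here: firefly luciferase luminescence read in stably transduced SW480 cells carrying the Sp5 promoter reporter with eight TCF/LEF sites, compounds given in 0.1% DMSO final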
Experimental: The screening assay for Wnt activity is described as follows.
Following incubation, 15 μl of BriteLite Plus luminescence reagent (Perkin Elmer) was added to each well of the 384-well assay plates. The plates were placed on an orbital shaker for 2 min and then luminescence was quantified using the Envision (Perkin Elmer) plate reader.

[3] = system: SW480 colon carcinoma cells; test: Cell viability assay (CellTiter-Glo); type: cell-based, human; details: Homo sapiens; for EC50: 96 h, SW480 cells, CellTiter-Glo, four days incubation; for inhibition at 10 µM: SW480, read-out: percent inhibition at 10 μM
[4] = system: Tau phosphorylation at Ser396 (pSer396); test: Tau phosphorylation assay (pSer396 ELISA / western blot) in SH-SY5Y cells; type: cell-based, human; details: Homo sapiens, read-out: pSer396 Tau EC50;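 further: EC50 for reduction of Tau pSer396 in lysed cells, measured by colorimetric ELISA or chemiluminescent western blot, both using the same pSer396 antibody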
[5] = system: α-smooth muscle actin (αSMA) positive LL29 cells; test: Inhibition of fibrotic process: αSMA in TGF-β1 treated primary human fibroblasts from IPF patients; type: cell-based; details: Homo sapiens, Fibroblast; for EC50: 96 h, Table 8, LL29 fibroblasts from IPF patients, TGF-β1 20 ng/mL, 4 days, dose-response 10 μM to 0.94 nM; for inhibition at 10 µM: read-out: percent value in parentheses beside EC50 >10 μM;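 on all read-outs here: controls were TGF-β1 stimulated wells with DMSO vehicle (positive) and cells given DMSO alone (negative), cultured in F12 medium with 1% fetal bovine serum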
IL-6 = IL-6 inhibition in LPS-stimulated human peripheral blood mononuclear cells (HTRF); type: cell-based; details: Homo sapiens, PBMC; for EC50: Table 9, huPBMCs, LPS 50 ng/mL, 22 hours, dose-response starting from 10 μM; for inhibition at 10 µM: read-out: percent value in parentheses beside EC50 >10 μM;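 on all read-outs here: IL-6 detected by HTRF with an XL665- and Cryptate-labelled anti-IL-6 antibody pair, samples run in duplicate, EC50 obtained from a four-parameter Levenberg-Marquardt curve fit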
Experimental: After 22 hour incubation, a mixture of anti-IL6 XL665 and anti-IL-6 Cryptate diluted in reconstitution buffer (Catalog #62IL6PEC, Cisbio Inc., Bedford, Mass.) was added to each well. […] All samples were processed in duplicate. […] EC50 was determined using software generated by Dotmatics Limited (Windhill Bishops Stortford Herts, UK) using the Levenberg-Marquardt 4 parameter fitting procedure with finite different gradients.

[6] = SH-SY5Y cells, overnight (16-18 h) exposure

Sequence of recombinant GSK3β kinase (P49841 whole entry): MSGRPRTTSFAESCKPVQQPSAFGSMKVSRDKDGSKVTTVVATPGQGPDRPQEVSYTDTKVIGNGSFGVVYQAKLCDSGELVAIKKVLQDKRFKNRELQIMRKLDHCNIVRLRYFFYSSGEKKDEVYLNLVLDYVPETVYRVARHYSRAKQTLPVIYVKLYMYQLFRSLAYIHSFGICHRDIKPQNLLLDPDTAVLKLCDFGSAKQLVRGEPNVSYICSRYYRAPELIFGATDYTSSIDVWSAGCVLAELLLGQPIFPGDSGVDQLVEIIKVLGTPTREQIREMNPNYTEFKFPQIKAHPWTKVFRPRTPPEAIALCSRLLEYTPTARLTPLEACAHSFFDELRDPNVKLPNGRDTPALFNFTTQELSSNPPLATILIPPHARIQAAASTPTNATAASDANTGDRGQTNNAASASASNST

## CC(C)CN1CCC(C(=O)Nc2cc3cc(-c4cnn(C)c4)c(F)cc3cn2)CC1 [Compound 370, N-(7-Fluoro-6-(1-methyl-1H-pyrazol-4-yl)isoquinolin-3-yl)-1-isobutylpiperidine-4-carboxamide]
Recombinant GSK3β kinase
  EC50: 89 nM
[1]
  EC50: 3.1 nM
[2]
  EC50: 608 nM
[3]
  EC50: 1250 nM
[4]; [6]
  EC50: 256 nM
[5]
  EC50: 379 nM
IL-6
  EC50: 3710 nM

## Cn1cc(-c2cc3cc(NC(=O)C4CCN(CCF)CC4)ncc3cc2F)cn1 [Compound 371, N-(7-Fluoro-6-(1-methyl-1H-pyrazol-4-yl)isoquinolin-3-yl)-1-(2-fluoroethyl) piperidine-4-carboxamide]
Recombinant GSK3β kinase
  EC50: 23 nM
[1]
  EC50: 2.4 nM
[2]
  EC50: 643 nM
[3]
  EC50: 1060 nM
[4]; [6]
  EC50: 581 nM
[5]
  EC50: 394 nM
IL-6
  EC50: 1210 nM

## CN1CCN(CC(=O)Nc2cc3cc(-c4cnn(C)c4)c(F)cc3cn2)CC1 [Compound 372, N-(7-Fluoro-6-(1-methyl-1H-pyrazol-4-yl)isoquinolin-3-yl)-2-(4-methylpiperazin-1-yl)acetamide]
Recombinant GSK3β kinase
  EC50: 79 nM
[1]
  EC50: 10.6 nM
[2]
  EC50: 3400 nM
[3]
  EC50: 8820 nM
[4]; [6]
  EC50: 1100 nM
[5]
  EC50: 504 nM
IL-6
  EC50: 3660 nM

## Cc1ncc(-c2ccc3cnc(NC(=O)C4(F)CC4)cc3c2)n1C [Compound 376, N-(6-(1,2-Dimethyl-1H-imidazol-5-yl)isoquinolin-3-yl)-1-fluorocyclopropane-1-carboxamide]
Recombinant GSK3β kinase
  EC50: 710 nM
[1]
  EC50: 5.5 nM
[2]
  EC50: 2210 nM
[3]
  EC50: 4200 nM
[4]; [6]
  EC50: 7900 nM
[5]
  EC50: > 10000 nM
  inhibition at 10 µM: 21%
IL-6
  inhibition at 10 µM: 11.8%
  EC50: > 10000 nM

## Cn1cc(-c2ccc3cnc(NC(=O)C4CC4)cc3c2)nn1 [Compound 433, N-(6-(1-Methyl-1H-1,2,3-triazol-4-yl)isoquinolin-3-yl) cyclopropanecarboxamide]
Recombinant GSK3β kinase
  EC50: 1 nM
[1]
  EC50: 1.9 nM
[2]
  EC50: 191 nM
[3]
  EC50: 615 nM
[4]; [6]
  EC50: 32 nM
[5]
  EC50: 52 nM
IL-6
  EC50: 411 nM

## Cn1cc(-c2ccc3cnc(NC(=O)C4CCC(F)(F)CC4)cc3c2)nn1 [Compound 441, 4,4-Difluoro-N-(6-(1-methyl-1H-1,2,3-triazol-4-yl)isoquinolin-3-yl) cyclohexane-1-carboxamide]
Recombinant GSK3β kinase
  EC50: 5 nM
[1]
  EC50: 9.1 nM
[2]
  EC50: 1210 nM
[3]
  EC50: 5270 nM
[4]; [6]
  EC50: 73 nM
[5]
  EC50: 57 nM
IL-6
  EC50: 3350 nM

## Cn1cc(-c2ccc3cnc(NC(=O)[C@H]4CC[C@H](N(C)C)CC4)cc3c2)nn1 [Compound 443, trans-4-(Dimethylamino)-N-(6-(1-methyl-1H-1,2,3-triazol-4-yl)isoquinolin-3-yl)cyclohexane-1-carboxamide]
Recombinant GSK3β kinase
  EC50: 13 nM
[1]
  EC50: 2.2 nM
[2]
  EC50: 397 nM
[3]
  EC50: 1680 nM
[4]; [6]
  EC50: 289 nM
[5]
  EC50: 371 nM
IL-6
  EC50: 3290 nM

## CN1CCN(C[C@H]2CC[C@H](C(=O)Nc3cc4cc(-c5cn(C)nn5)ccc4cn3)CC2)CC1 [Compound 448, trans-N-(6-(1-Methyl-1H-1,2,3-triazol-4-yl)isoquinolin-3-yl)-4-((4-methylpiperazin-1-yl)methyl)cyclohexane-1-carboxamide]
Recombinant GSK3β kinase
  EC50: 11 nM
[1]
  EC50: 1.2 nM
[2]
  EC50: 289 nM
[3]
  EC50: 626 nM
[4]; [6]
  EC50: 106 nM
[5]
  EC50: 59 nM
IL-6
  EC50: 2180 nM

## Cn1cc(-c2ccc3cnc(NC(=O)C4CCNCC4)cc3c2)nn1 [Compound 452, N-(6-(1-Methyl-1H-1,2,3-triazol-4-yl)isoquinolin-3-yl)piperidine-4-carboxamide]
Recombinant GSK3β kinase
  EC50: 7 nM
[1]
  EC50: 0.4 nM
[2]
  EC50: 787 nM
[3]
  EC50: 1450 nM
[4]; [6]
  EC50: 912 nM
[5]
  EC50: 220 nM
IL-6
  EC50: 2970 nM

## Cn1cc(-c2ccc3cnc(NC(=O)C4CCN(CC5(C(F)(F)F)CC5)CC4)cc3c2)nn1 [Compound 470, N-(6-(1-Methyl-1H-1,2,3-triazol-4-yl)isoquinolin-3-yl)-1-((1-(trifluoromethyl)cyclopropyl)methyl)piperidine-4-carboxamide]
Recombinant GSK3β kinase
  EC50: 4 nM
[1]
  EC50: 2.7 nM
[2]
  EC50: 1180 nM
[3]
  EC50: 4190 nM
[4]; [6]
  EC50: 95 nM
[5]
  EC50: 387 nM
IL-6
  EC50: 3550 nM

## Cn1cc(-c2ccc3cnc(NC(=O)C4CCN(CC5(C)COC5)CC4)cc3c2)nn1 [Compound 472, N-(6-(1-Methyl-1H-1,2,3-triazol-4-yl)isoquinolin-3-yl)-1-((3-methyloxetan-3-yl)methyl)piperidine-4-carboxamide]
Recombinant GSK3β kinase
  EC50: 8 nM
[1]
  EC50: 3.2 nM
[2]
  EC50: 382 nM
[3]
  EC50: 5090 nM
[4]; [6]
  EC50: 200 nM
[5]
  EC50: 243 nM
IL-6
  EC50: 5410 nM

## Cn1cc(-c2ccc3cnc(NC(=O)C4CCN(C(=O)CN5CCCC5)CC4)cc3c2)nn1 [Compound 475, N-(6-(1-Methyl-1H-1,2,3-triazol-4-yl)isoquinolin-3-yl)-1-(2-(pyrrolidin-1-yl)acetyl)piperidine-4-carboxamide]
Recombinant GSK3β kinase
  EC50: 23 nM
[1]
  EC50: 3.2 nM
[2]
  EC50: 701 nM
[3]
  EC50: 1060 nM
[4]; [6]
  EC50: 1800 nM
[5]
  EC50: 140 nM
IL-6
  EC50: 2560 nM

## CN1CCC(N2CCC(C(=O)Nc3cc4cc(-c5cn(C)nn5)ccc4cn3)CC2)CC1 [Compound 477, 1′-Methyl-N-(6-(1-methyl-1H-1,2,3-triazol-4-yl)isoquinolin-3-yl)-[1,4′-bipiperidine]-4-carboxamide]
Recombinant GSK3β kinase
  EC50: 6 nM
[1]
  EC50: 1.1 nM
[2]
  EC50: 327 nM
[3]
  EC50: 719 nM
[4]; [6]
  EC50: 188 nM
[5]
  EC50: 77 nM
IL-6
  EC50: 2990 nM

## Cn1cc(-c2ccc3cnc(NC(=O)[C@@H]4CCCNC4)cc3c2)nn1 [Compound 481, (R)—N-(6-(1-Methyl-1H-1,2,3-triazol-4-yl)isoquinolin-3-yl)piperidine-3-carboxamide]
Recombinant GSK3β kinase
  EC50: 4 nM
[1]
  EC50: 4.3 nM
[2]
  EC50: 1540 nM
[3]
  EC50: 1370 nM
[4]; [6]
  EC50: 662 nM
[5]
  EC50: 1020 nM
IL-6
  EC50: 1140 nM

## CC(C)CN1CCC[C@@H](C(=O)Nc2cc3cc(-c4cn(C)nn4)ccc3cn2)C1 [Compound 483, (R)-1-Isobutyl-N-(6-(1-methyl-1H-1,2,3-triazol-4-yl)isoquinolin-3-yl) piperidine-3-carboxamide]
Recombinant GSK3β kinase
  EC50: 45 nM
[1]
  EC50: 11.3 nM
[2]
  EC50: 1870 nM
[3]
  EC50: 7340 nM
[4]; [6]
  EC50: 611 nM
[5]
  EC50: 315 nM
IL-6
  EC50: 9620 nM

## Cn1cc(-c2ccc3cnc(NC(=O)CN4CCCC4)cc3c2)nn1 [Compound 487, N-(6-(1-Methyl-1H-1,2,3-triazol-4-yl)isoquinolin-3-yl)-2-(pyrrolidin-1-yl) acetamide]
Recombinant GSK3β kinase
  EC50: 7 nM
[1]
  EC50: 7.7 nM
[2]
  EC50: 446 nM
[3]
  EC50: 2680 nM
[4]; [6]
  EC50: 161 nM
[5]
  EC50: 367 nM
IL-6
  EC50: 3300 nM

## Cn1cc(-c2ccc3cnc(NC(=O)CN4C5CCC4CC5)cc3c2)nn1 [Compound 513, 2-(7-Azabicyclo[2.2.1]heptan-7-yl)-N-(6-(1-methyl-1H-1,2,3-triazol-4-yl)isoquinolin-3-yl)acetamide]
Recombinant GSK3β kinase
  EC50: 43 nM
[1]
  EC50: 10.4 nM
[2]
  EC50: 6430 nM
[3]
  EC50: 9060 nM
[4]; SH-SY5Y
  EC50: 864 nM
[5]
  EC50: 1350 nM
IL-6
  inhibition at 10 µM: 14.5%
  EC50: > 10000 nM

## Cn1cncc1-c1ccc2cnc(NC(=O)C(C)(C)F)cc2c1 [Compound 517, 2-Fluoro-2-methyl-N-(6-(1-methyl-1H-imidazol-5-yl)isoquinolin-3-yl) propanamide]
Recombinant GSK3β kinase
  EC50: 470 nM
[1]
  EC50: 9.6 nM
[2]
  inhibition at 10 µM: 35.8%
  EC50: > 10000 nM
[3]
  EC50: > 10000 nM
  inhibition at 10 µM: 27.5%
[4]; [6]
  EC50: 1300 nM
[5]
  EC50: > 10000 nM
  inhibition at 10 µM: 29.9%
IL-6
  EC50: 9070 nM

## Cn1cncc1-c1ccc2cnc(NC(=O)C3(F)CC3)cc2c1 [Compound 521, 1-Fluoro-N-(6-(1-methyl-1H-imidazol-5-yl)isoquinolin-3-yl)cyclopropane-1-carboxamide]
Recombinant GSK3β kinase
  EC50: 234 nM
[1]
  EC50: 1.6 nM
[2]
  EC50: 1800 nM
[3]
  EC50: 3630 nM
[4]; [6]
  EC50: 1100 nM
[5]
  EC50: 1990 nM
IL-6
  EC50: 3250 nM

## CN1CC2(CC(C(=O)Nc3cc4cc(-c5cncn5C)ccc4cn3)C2)C1 [Compound 523, 2-Methyl-N-(6-(1-methyl-1H-imidazol-5-yl)isoquinolin-3-yl)-2-azaspiro[3.3] heptane-6-carboxamide]
Recombinant GSK3β kinase
  EC50: 42 nM
[1]
  EC50: 2.9 nM
[2]
  EC50: 683 nM
[3]
  EC50: 447 nM
[4]; [6]
  EC50: 2200 nM
[5]
  EC50: > 10000 nM
  inhibition at 10 µM: 32.6%
IL-6
  EC50: 201 nM

## Cn1cncc1-c1ccc2cnc(NC(=O)C3(F)CCCCC3)cc2c1 [Compound 527, 1-Fluoro-N-(6-(1-methyl-1H-imidazol-5-yl)isoquinolin-3-yl)cyclohexane-1-carboxamide]
Recombinant GSK3β kinase
  EC50: 415 nM
[1]
  EC50: 9.8 nM
[2]
  inhibition at 10 µM: 23.5%
  EC50: > 10000 nM
[3]
  EC50: > 10000 nM
  inhibition at 10 µM: 43.6%
[4]; [6]
  EC50: 2400 nM
[5]
  EC50: > 10000 nM
  inhibition at 10 µM: 37.3%
IL-6
  EC50: 9980 nM
